# Paper doi:10.1101/2021.04.29.441652v1 (biorxiv, 2021)
# Target: human σ2 receptor (TMEM97) (Homo sapiens, UniProt Q5BJF2)
# Experiment: biochemical
# Format: Expi293 membranes
# Settings: read-out: % of control remaining
# human σ2 receptor (TMEM97), sequence (Q5BJF2 whole entry): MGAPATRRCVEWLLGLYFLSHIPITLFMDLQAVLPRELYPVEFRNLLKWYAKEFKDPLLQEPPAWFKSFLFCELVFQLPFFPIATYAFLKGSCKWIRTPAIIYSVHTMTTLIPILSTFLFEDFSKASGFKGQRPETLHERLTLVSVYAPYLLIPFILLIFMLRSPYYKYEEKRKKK
row,Structure (SMILES),remaining activity at 1 µM [%]
1,CCCN(C)C[C@H]1CCN([C@H](C)C(=O)c2c[nH]c3ncccc23)C1 [ZINC000271284821],28.3
2,Cc1c(Br)cccc1C(=O)N1CC[C@@H]2CCN(C)C[C@H]21 [ZINC000272592294],79.1
3,CN1CCC(C)(CNC(=O)Nc2ccc(Br)nc2)CC1 [ZINC000272631760],91.2
4,CC[C@@]1(C)Oc2ccc(NC(=O)C(=O)NC[C@@H]3CCN(C)C3)cc2O1 [ZINC000276781830],97.6
5,COCCOc1ccc(NC(=O)C(=O)N2C[C@H]3CN(C)C[C@H]3C2)cn1 [ZINC000279187431],105
6,Cc1noc(C)c1CNC(=O)C(=O)N1CCN(C2CCCC2)CC1 [ZINC000283462313],98.5
7,COc1ccc(-c2ccccc2)cc1CNCCC1(O)CCOCC1 [ZINC000285662957],17.5
8,CCc1cccc(C)c1NC(=O)CN1C[C@@H](N2CCCC2)C[C@H]1C [ZINC000285725404],115
9,CNC(=O)CC[C@H]1CCCCN1Cc1cc(-c2ccccc2)on1 [ZINC000286502332],139
10,COC(=O)c1cccc(S(=O)(=O)N2CC[C@@H](N3CCCC3)[C@@H]2C)c1 [ZINC000286616311],75
11,CCc1nn(C)c(Cl)c1C(=O)N1CC[C@@H](N2CCNCC2)C1 [ZINC000286782676],132
12,Cc1c(CNC(=O)C(=O)N2CC[C@@H](C3CCN(C)CC3)C2)cnn1C [ZINC000287105318],117
13,O[C@H]1c2ccccc2C[C@H]1N1Cc2cccc(Cl)c2C1 [ZINC000287374567],114
14,COC(=O)C[C@H]1CCCN1C[C@@H](O)Cc1cccc(Cl)c1 [ZINC000287581634],111
15,C[C@@H]1COCC[C@@H]1NCCc1c[nH]c2cccc(Br)c12 [ZINC000289897491],51
16,CS[C@@H]1CCN(Cc2cnc(C)n2-c2ccccc2)C1 [ZINC000295103757],114
17,CS[C@H]1CCN([C@H](C)c2nc(-c3ccccc3C)no2)C1 [ZINC000296435291],106
18,C[C@H](COc1ccc(Cl)c(Cl)c1)N[C@@H](C)Cn1cncn1 [ZINC000296612417],59.2
19,CN(CCCN(C)C(=O)C(=O)N(CCO)C1CC1)Cc1ccco1 [ZINC000297448741],105
20,O=C(CN1CCC(c2nc3cc(Cl)ccc3o2)CC1)N1CCC1 [ZINC000298791523],89
21,c1ccc(SC[C@@H]2CCN(c3cc(N4CCCCC4)ncn3)C2)cc1 [ZINC000301468116],88.5
22,CC(C)CC(=O)N[C@@H](C(=O)N1CCC[C@H](N2CCCC2)C1)c1ccccc1 [ZINC000332414923],87.2
23,C[C@H](C(=O)NCC1CCCCC1)N1CCC[C@H](N2CCCC2=O)CC1 [ZINC000334024070],111
24,O=C1NCCC[C@@H]1N1CC[C@@H](c2cccc(Cl)c2)C1 [ZINC000336580930],60.9
25,C[C@H]1CN(CCN(C)C(=O)C(=O)NC2CCN(C)CC2)C[C@H](C)O1 [ZINC000339640280],106
26,Cc1ccncc1N1CCN(C[C@H](O)CN2C[C@@H](C)O[C@H](C)C2)CC1 [ZINC000340106708],50

row,Structure (SMILES),remaining activity at 1 µM [%]
1,Cc1cnc(CN[C@@H](CO)CCC(C)(C)C)n1C [ZINC000341348768],103
2,COCCN1CCC(NC(=O)C(=O)N[C@H]2CCOC(C)(C)C2)CC1 [ZINC000343016571],118
3,C[C@@H]1OCC[C@]1(C)NC(=O)CCc1nc2c(O)nc(=O)n(C)c2[nH]1 [ZINC000345525893],90.8
4,CC[C@H](NC(=O)C(=O)N(CC)CCCN1CCCC1)[C@@H]1CCCO1 [ZINC000345970626],71.7
5,COC(=O)[C@@H]1CCN([C@H](C)C(=O)NCc2ccccc2C)[C@@H]1C [ZINC000347007006],108
6,CN(C/C=C\c1ccc(F)c(F)c1)[C@@H]1COC[C@@H]1O [ZINC000348635286],105
7,C[C@@H]1CCN2C(=O)N(CCCN3CCC[C@@H](C(N)=O)C3)C(=O)[C@H]2C1 [ZINC000349353698],142
8,N#Cc1ccc(N2CCN(C[C@H](O)CC3CCCC3)CC2)c(F)c1 [ZINC000352856249],43
9,Cc1cc(CN2CC[C@H]2Cc2ccccc2)ccc1-n1cncn1 [ZINC000353995714],13.2
10,CN1CC[C@](O)(CNC(=O)c2cc3cc([N+](=O)[O-])ccc3s2)C1 [ZINC000358051108],102
11,CN1CC[C@](O)(CNC(=O)c2ccc([N+](=O)[O-])c3cccnc23)C1 [ZINC000358062278],102
12,CCc1ccnc(CNC(=O)C(=O)N[C@@H]2C[C@H](C)N(C3CC3)C2)c1 [ZINC000358071102],113
13,Cc1ccc([C@H](NC[C@@]2(O)CCN(C)C2)c2ccccc2)cc1 [ZINC000358253868],52.1
14,CC(C)N1C[C@H](NC(=O)c2ccn(Cc3ccccc3)c2)[C@@H](C)C1 [ZINC000359009035],99.8
15,Cc1nc2n(n1)CCN(C(=O)C(=O)N[C@@H]1CCO[C@@H](CC(C)C)C1)C2 [ZINC000361132106],76.4
16,CCO[C@@H](CC(=O)N1CCCN(C2CCCC2)CC1)C1=CCCC1 [ZINC000362611503],27.8
17,CC(C)N1CCN([C@H]2CCN(C(=O)CC3(O)CCCCC3)C2)CC1 [ZINC000363920872],88.9
18,CN1CC[C@]2(CCN(C(=O)CN3C(=O)NC4(CCCC4)C3=O)C2)C1 [ZINC000366544782],110
19,Cc1ccccc1Cc1nnc(CN2C[C@@H](N3CCCC3)C[C@H]2C)o1 [ZINC000367601434],90.8
20,CN1CCO[C@@H](CN(Cc2cnc(-c3cnn(C)c3)nc2)CC2CC2)C1 [ZINC000369129048],120
21,N#CC1(c2ccccn2)CCN([C@@H]2Cc3ccccc3[C@@H]2O)CC1 [ZINC000369205980],112
22,O=C1CCCCN1[C@@H]1CCCN(Cc2cc(-c3ccccc3)no2)C1 [ZINC000370893072],82.1
23,CN1CCC(C(=O)N2CCC[C@@H](c3nc4ccc(F)cc4o3)C2)CC1 [ZINC000370933962],98.9
24,Cc1cc(C)cc(NC(=O)[C@H](C)N2CC[C@@H](C3CCOCC3)C2)c1 [ZINC000374368469],5.8
25,C[C@@H](CO)N1CCCN([C@@H](C)C(=O)Nc2cccc(Cl)c2Cl)CC1 [ZINC000375486080],48.7
26,CC[C@H](c1ccccc1)N1CCC(C#N)(c2ccccn2)CC1 [ZINC000376738332],84

row,Structure (SMILES),remaining activity at 1 µM [%]
1,CS[C@H](CO)[C@@H](C)NC(=O)N[C@@H]1CCN(C2CCN(C)CC2)C1 [ZINC000377772869],100
2,NC(=O)c1ccccc1N1CC[C@H](NC(=O)CC2CCNCC2)C1 [ZINC000378210510],95.3
3,C[C@H](N[C@@H]1CCCc2c1[nH]c1ccccc21)[C@H]1CCCOC1 [ZINC000389015736],54.1
4,COc1ccc2cc(CN[C@](C)(CO)C(C)C)ccc2c1 [ZINC000398583627],14.6
5,CCc1cc(NC(=O)[C@@H]2CC[C@H](C3CC3)N2)ccc1C [ZINC000407281203],80.8
6,O=C(NC1CC1)C(=O)N1CCN(S(=O)(=O)C[C@@H]2CCCO2)CC1 [ZINC000407973885],120
7,O=C(c1cncc(N2CCOCC2)c1)N1CCN2C(=O)NC[C@@H]2C1 [ZINC000408001865],110
8,CN(Cc1cc(F)cc(F)c1)C(=O)C(=O)N1CC[C@H](N2CC=CC2)C1 [ZINC000410783840],103
9,C[C@H](C(=O)NCc1ccc(F)cc1)N1C[C@H]2C[C@@H](O)CC[C@H]2C1 [ZINC000412048402],88.6
10,CC1CCN(C[C@H](O)CNc2nccc3ccc([N+](=O)[O-])cc23)CC1 [ZINC000413145325],62.9
11,O=C(NC[C@H]1CCCN1)Nc1cc(F)cc(F)c1Br [ZINC000415549177],73.8
12,Cc1cc([N+](=O)[O-])cc(C)c1S(=O)(=O)NC[C@H]1CCN(C)C1 [ZINC000416493836],72.3
13,C[C@H](N)[C@@H]1CCCCN1C(=O)NCc1cn2ccccc2n1 [ZINC000416873685],127
14,CC(C)(C(=O)N[C@@H]1CCCc2cc(N)ccc21)[C@H](N)c1ccccc1 [ZINC000417806012],96.2
15,Cc1cccc(C)c1OC[C@H](C)NC(=O)C(=O)NC[C@@H]1CCCNC1 [ZINC000418924570],64.9
16,CN(Cc1ccccc1)C(=O)CNC(=O)C(=O)N[C@H]1CCCNC1 [ZINC000419445843],82.5
17,CC[C@H]1CN(C(=O)C(=O)NCCCN2CCNCC2)CCS1 [ZINC000419873354],95.7
18,NC[C@@H](NC(=O)C(=O)NCCN1CCSCC1)C1CCCC1 [ZINC000420063417],94.1
19,CC(C)Sc1c(Cl)cccc1NC(=O)C(=O)N(C)C[C@H]1CCCN1C [ZINC000421295130],77.9
20,COc1ccc(Oc2ccc([N+](=O)[O-])cc2C(=O)N(C)C[C@H]2CCCN2C)cc1 [ZINC000421699823],96.4
21,CCC[C@@H](C(=O)N(C)C[C@H]1CCCN1C)c1ccccc1 [ZINC000421701270],76.1
22,CC(C)CSc1ccc([N+](=O)[O-])cc1C(=O)N(C)C[C@H]1CCCN1C [ZINC000421710394],94.6
23,CC(C)Sc1ccc([N+](=O)[O-])cc1C(=O)N(C)C[C@H]1CCCN1C [ZINC000421710406],81.8
24,COC(=O)[C@@]1(C)CCCN(C(=O)C(=O)N[C@@H](C)Cc2ccncc2)C1 [ZINC000422349618],129
25,C[C@H](c1ccccc1Br)N(C)C(=O)C[C@@H]1CCCN1 [ZINC000423867812],95.6
26,O[C@H](COC(c1ccccc1)c1ccccc1)CN1CC[C@@H]2CCC[C@H]21 [ZINC000426471156],36.3
